Results from US10758522B2, “Small molecule analogs of the nemo binding peptide” (THE SCRIPPS RESEARCH INSTITUTE, priority 2015, dated 2020).

What was measured:
[1] = molecular target: T1, IKK complex (IKKß, IKKα and NEMO) (Homo sapiens, UniProt Q9Y6K9); test: Co-immunoprecipitation of NEMO with IKKß in 293 cells; type: cell-based; conditions: Zinc-5 at 4 hours, Zinc-13 at 1 hour, NBD peptide at 4 hours
T1 construct: analyzed by Western blot for the level of co-precipitated NEMO; endogenous in cells; host or cells: 293 (HEK293) cells
Text: FIG. 8 is a bar graph showing the inhibition of TNFα by NBDA-1 (Zinc-13). […] In addition, we have examined the ability of the compounds to disrupt the IKK complex, comprised of IKKß, IKKα and NEMO.
A non-functional, related compound Zinc-7 had no effect.

IKKβ-NEMO interaction = test: Immunoprecipitation of NEMO and IKKβ immunoblot in Raw 264.7 macrophages and HEK293 cells; type: cell-based; conditions: Raw 264.7 macrophages / HEK293; mimetics 100 μM, 8K-NBD 400 μM
Experimental: The NBD mimetics reduce the interaction between IKKg (NEMO) and IKKß. The indicated concentrations of the drugs were added to HEK 293 or Raw 264.7 cells and cell extracts prepared 30 minutes later. Following immunoprecipitation (IP) of NEMO, the Western was probed for IKKß.
After treatment with the mimetics or NBD peptide, NEMO was immunoprecipitated by an anti-NEMO antibody and IKKβ was immunoblotted to determine the binding of IKKβ to NEMO.
HEK293 or Raw264.7 cells were seeded at 1×10^6 cells/well in 6-well plates and treated with vehicle, small molecule or NBD peptide for indicated time. Cells were lysed in NP-40 lysis buffer supplemented with 1× protease inhibitor cocktails (sigma). Protein was immunoprecipitated by incubating 150 μg of lysate with 1 μg of anti-NEMO antibody (Santa Cruz) on a rotating shaker at 4° C. for 4 hrs, followed by incubation with 20 ul of Protein A agarose beads (ThermoFisher) for 1 hr. Beads were washed in NP40 buffer 3 times and PBS once. Protein was then denatured in SDS-sample buffer and resolved by MINI-PROTEAN TGX 4-15% SDS-PAGE. Anti-IKKβ (1:1000 CST) was used to assess binding of IKKβ to NEMO and anti-NEMO (1:1000 CST) or IgG were used to as a loading control.

NF-κB target genes = test: qRT-PCR of NF-κB target genes in LPS-stimulated Raw 264.7 cells; type: cell-based, mouse; conditions: Raw 264.7, LPS
Experimental: Effect of the NBD mimetics on expression of NF-kB regulated genes in the Raw mouse macrophage cell line. Treatment of the Raw cells with the indicated drugs prior to addition of LPS reduced NF-kB-mediated gene expression as measured by RT-PCR.
To determine whether the inhibitory effect of the mimetics is TNF-α-dependent, LPS-mediated NF-κB activation via TLR4 was examined to determine a broader inhibitory effect of the novel NBD mimetics. NF-κB was stimulated in Raw 264.7 by 1 ug/ml of LPS for 2 hr and genes transcriptionally regulated by NF-κB were determined by qRT-PCR analysis. Both an IKK active site inhibitor IKKi VII (2 μM) and the 8K-NBD peptide (400 μM) were included as positive controls and the expression of COX2, IL-6, IL-1β, TNF-α, IκBα and iNOS were assessed.
Raw 264.7 cells were treated with a 50 μM solution of the SR compound for 30 minutes, and then the mRNA was harvested 2 hours after addition of 1 μg/mL LPS.
Snap frozen tissues were preserved in RNAlater RNA stabilization solution (ThermoFisher) before processed. Total RNA was extracted from cells or tissues using TRIZOL reagent (Life Technologies) and 1500 ng of messenger RNA (mRNA) was subjected to synthesize complementary DNA (cDNA) using SuperScript VILO cDNA synthesis kit. qRT-PCR was performed in a StepOnePlus Real-Time PCR system using Platinum SYBR Green qPCR SuperMix-UDG (ThermoFisher). Target gene expression was calculated using the comparative CT method (ΔΔCT) and normalized to an internal control gene Actb (β-actin). Primers used are as follows: Ptgs2 (COX-2) forward: […]; Ptgs2 (COX-2) reverse: […]; Nfkbia (IκBα) forward: […]; Nfkbia (IκBα) reverse: […]; Il1b (IL-1β) forward: […]; Il1b (IL-1β) reverse: […]; Nos2 (iNOS) forward: […]; Nos2 (iNOS) reverse: […]; Tnf (TNF) forward: […]; Tnf (TNF) reverse: […]; Il6 (IL-6) forward: […]; Il6 (IL-6) reverse: […]. Actb (β-actin) forward: […]; Actb (β-actin) reverse: […];

mdx mice = test: Chronic treatment of mdx mice (Duchenne muscular dystrophy model); type: in vivo, mouse; conditions: ip 3 times/week for 4 weeks
Text: Mdx mice develop normally at birth, and then undergo a massive myonecrosis starting at three weeks. Treatment of mdx mice with IKK/NF-kB inhibitors effectively reduces inflammation, block necrosis and increase muscle regeneration. Mdx mice were chronically treated with vehicle, SR12343, SR12460 or 8K-NBD starting from day 21, 3 times/week for 4 weeks. […] To determine if SR12343 and SR12460 improve muscle pathology, tibialis anterior (TA) muscle was stained with hematoxylin and eosin (H&E) to assess inflammatory infiltration, necrosis, central nucleation and fibrosis. […] Fiber size in centrally nucleated and non-centrally nucleated myofibers was also smaller in mice treated with SR12343 and 8K-NBD, indicating active reconstruction of myofiber during the regenerative phase.
To determine muscle strength post-treatment, grip strength test on forelimbs was performed 2 weeks and 4 weeks post-treatment.
HEK293 cells were grown in Dulbecco's Modification of Eagles Medium (with 4.5 g/L glucose and L-glutamine), supplemented with 10% fetal bovine serum, penicillin and streptomycin. Raw264.7 cells were cultured in RPMI-1640 media containing 10% heat-inactivated fetal bovine serum, penicillin and streptomycin. C57BL/10ScSn-Dmd^mdx/J and female C57BL/6 mice were purchased from the Jackson Laboratory. Mice were housed in the animal facilities of Scripps Fla. under constant temperature and humidity. Animal protocols used in this study were approved by Scripps Fla. Institutional Animal Care and Use Committees. Three week-old sex-matched mdx mice were dosed with SR12343 (30 mg/kg), […] (30 mg/kg), 8K-NBD peptide (10 mg/kg) or vehicle by intraperitoneal (i.p.) injection 3 times per week for 4 weeks. Mice were sacrificed at 7 weeks of age by carbon dioxide inhalation and tibialis anterior was collected for histological analysis.
Seven week-old treated or untreated mdx mice were measured for forelimb grip strength using a digital grip strength meter paired with a metal grid (Bioseb). Mice were allowed to grip the metal grid tightly and readings were obtained by gently pulling the tail backward until release. Five sequential measurements were performed and the average force was calculated.
Tissues fixed in 10% neutral buffered formalin (NBF) overnight were imbedded in paraffin. Tissue was sectioned at […] using a microtome. H&E staining was conducted following a standard protocol (REF).

[2] = system: K14-Cre; Ercc1−/flox mice; test: Topical treatment of skin aging in K14-Cre; Ercc1−/flox mice; type: in vivo, mouse; conditions: daily
Experimental: To test the ability of NBDA-1 to function in vivo, the drug was tested in several models of aging. In FIG. 12, the ability of topical treatment of NBDA-1 to reduce signs of skin aging is shown. Areas on the back of normal mice or mice with enhanced skin aging (K14-Cre; Ercc1^−/flox) were shaved and then treated daily with drugs or control creams.

Ercc1−/Δ mice = test: Systemic treatment of Ercc1−/Δ mice, intervertebral disc proteoglycan; type: in vivo, mouse; conditions: IP 3× a week, 10 mg/kg for 8 weeks
Experimental: The ability of the compounds to work systemically was also tested. In these experiments, Ercc1^−/Δ mice with accelerated aging (lifespan of 5 months) were treated systemically, 3× a week, by IP injection at a dose of 10 mg/kg for 8 weeks. Since we previously had shown that the NF-κB is a key factor in driving intervertebral disc degenerated, we assessed the effects of treatment on proteoglycan synthesis and content in the discus following treatment.

T1 sequence (Q9Y6K9 whole entry, one chain of several): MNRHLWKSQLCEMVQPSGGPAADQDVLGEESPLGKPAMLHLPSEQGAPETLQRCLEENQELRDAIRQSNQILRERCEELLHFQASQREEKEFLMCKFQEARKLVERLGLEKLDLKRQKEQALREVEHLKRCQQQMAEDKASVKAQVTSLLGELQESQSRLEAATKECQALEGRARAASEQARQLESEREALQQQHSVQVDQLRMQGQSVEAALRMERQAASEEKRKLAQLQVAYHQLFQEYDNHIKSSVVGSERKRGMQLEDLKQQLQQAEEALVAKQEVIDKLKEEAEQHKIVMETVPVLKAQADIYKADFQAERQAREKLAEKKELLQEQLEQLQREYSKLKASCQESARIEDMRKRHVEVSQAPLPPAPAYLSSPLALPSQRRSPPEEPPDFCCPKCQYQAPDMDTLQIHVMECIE

With “8K-NBD peptide: 8K-NBD (KKKKKKKKGGTALDWSWLQTE) peptide, NEMO binding domain peptide with protein transduction domain, control [reference compound]” the “level of NEMO co-immunoprecipitated with IKKß” value [1] was “reduced the level of co-immunoprecipitated NEMO”, the “disruption of IKKβ-NEMO interaction (NEMO IP, IKKβ blot)” value (IKKβ-NEMO interaction) was “able to disrupt the protein-protein interaction in macrophages at 400 μM” and the iNOS expression (NF-κB target genes) was “significantly inhibited”. For the same substance, the “expression of eMyHC and Pax 7 in TA muscle (qRT-PCR)” value (mdx mice) was “increased eMyHC expression, but to a lower extent compared to SR12343”, the “fiber size in centrally nucleated and non-centrally nucleated myofibers” value (mdx mice) was “smaller” and the “tibialis anterior muscle pathology (H&E)” value (mdx mice; SR compounds 30 mg/kg, 8K-NBD 10 mg/kg) was “reduced inflammatory cell infiltration and necrosis and also promoted muscle regeneration”. For the same substance, the “epidermal thickness / skin architecture” value [2] was “improved skin architecture and increased epidermal thickness” and the “proteoglycan synthesis and content in the intervertebral disc” value (Ercc1−/Δ mice) was “restored proteoglycan synthesis and content back to levels seen in normal, young mice”.
